In patent US10914728B2, “Bioassay for insulin formulations” (priority 2016, dated 2021):

Experiments:
Type in all cases: cell-based
[1] = tested on: H4IIE cells; experiment: Sensitivity assessment: ERK phosphorylation, H4IIE cells, Western blotting; details: insulin for 30 minutes, read-out: Approximate EC50 values, ERK phosphorylation
Description: (§1) For signalling, cells were treated with vehicle or increasing doses of insulin for 30 minutes. Cells were lysed in appropriate buffers and phosphorylation of the insulin receptor, Erk, Akt or Foxo was determined by Western blotting or ELISA, as specified. For mitogenicity, H4IIE cells were incubated with vehicle or increased doses of insulin and cellular growth was measured by detection of thymidine incorporation. […] Uptake and conversion of glucose into lipids were measured after 2 hours by extracting lipids into Microscint-e and measuring radioactivity using a top counter.
(§2) For all methods: to determine EC50 values, data were fitted to a nonlinear 4 parameter regression curve using Graphpad Prism software.

[2] = tested on: primary rat adipocytes; experiment: Rat free fat cell lipogenesis; details: Isolated primary rat adipocytes; H3 labelled glucose; 2 hours; read-out: Approximate EC50 values, Rat Free Fat Cell lipogenesis
Description: as §1, §2

[3] = tested on: H4IIE cells; experiment: Mitogenicity (thymidine incorporation), H4IIE cells; details: radioactively labelled thymidine, read-out: Approximate EC50 values, Mitogenecity (thymidine incorporation)
Description: as §1, §2

EC50 [1]: ~2.3 nM
EC50 [2]: ~0.02 nM
EC50 [3]: ~1 nM
Substance: human insulin
